The source of these data is ChEMBL document CHEMBL1201862, “PubChem BioAssay data set” (2004).

Holding throughout (test): growth of human tumour cells (NCI), 48 h
Assay [1] deals with BT-549.
The test system of assay [2] is MDA-MB-231.
The subject of assay [3] is MDA-N.
In assay [4] the test system is DLD-1.
Assay [5] has as its system DMS-114.
Assay [6] relates to LXFL 529.
Assay [7] deals with XF498.

Molecules are shown by their SMILES.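 How tested: cells in 96-well plates exposed to compound for 48 hours at five concentrations. GI50 = concentration required for 50% inhibition of growth.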 Activity calls are given as the source filed them. No stated cut-off is given here; in the data, active = GI50 up to about 1.1 µM and inactive = higher.

On to `NS(=O)(=O)c1ccc(NNc2c3ccccc3nc3c(C(=O)Nc4ccc(S(=O)(=O)Nc5ncccn5)cc4)cccc23)cc1`, for which the GI50 in assay [1], in assay [2] and in assay [3] was > 25 µM (inactive) each time.

For the compound `Oc1ccccc1/C=N/c1ccc(-c2nc3ccccc3s2)cc1`, the GI50 was 31.8 µM (inactive) in assay [1] and 29.6 µM (inactive) in assay [3].

Take `Brc1ccc2c([C@H]3CN[C@@H](c4c[nH]c5cc(Br)ccc45)CN3)c[nH]c2c1`: the figures for the GI50 in assay [1], in assay [2] and in assay [3] were 12.3 µM (inactive), 1.8 µM (inactive) and 1.66 µM (inactive), respectively.

Regarding `CN(C)c1ccc(C=c2c3ccccc3n3c2c2ccccc2[n+]3C)cc1`, the GI50 in assay [1] was 0.274 µM (active); in assay [2] it was 0.877 µM (active); in assay [3] it was 0.526 µM (active).

In the case of `O=C1c2ccccc2C(=O)c2c(Nc3cc4c5c(ccc6c7ccc8c9c(cc(Nc%10cccc%11c%10C(=O)c%10ccccc%10C%11=O)c(c3c56)c97)-c3ccccc3C8=O)C(=O)c3ccccc3-4)cccc21`, the GI50 in assay [1] is 46.3 µM (inactive); in assay [2], 31.6 µM (inactive); in assay [3] it was > 100 µM (inactive).

Regarding `C=C1CC(Cn2cc(C)c(=O)[nH]c2=O)(c2ccc(-c3ccccc3)cc2)OC1=O` (stereo not drawn), the GI50 is 1.46 µM (inactive) in assay [1], 2.22 µM (inactive) in assay [2] and 1.33 µM (inactive) in assay [3].

Consider `COc1ccccc1CNCc1nc2ccccc2[nH]1`, for which the GI50 in assay [1], in assay [2] and in assay [3] was > 100 µM (inactive) each time.

Take `CC(NNC(=O)c1cc[n+]([BH2-]C#N)cc1)c1cccc(F)c1` (stereo not drawn): the GI50 in assay [1], in assay [2] and in assay [3] was > 100 µM (inactive) each time.

As for `O=P(O)(Cc1ccccc1)c1ccccc1-c1ccccc1`, the GI50 in assay [1], in assay [2] and in assay [3] was > 100 µM (inactive) each time.

In the case of `Cc1nc2nnc(CCCCCCCCc3nnc4nc(C)[nH]n34)n2[nH]1`, the GI50 in assay [1], in assay [2] and in assay [3] was > 100 µM (inactive) in each case.

As for `Oc1ccc2ccccc2c1Cc1c(O)ccc2ccccc12`, the GI50 in assay [1] is 16.9 µM (inactive); in assay [2], 18.2 µM (inactive); in assay [3], 11.6 µM (inactive).

`Cc1ccc(S(=O)(=O)NC(C(=O)O)C(C)C)cc1` (stereo not drawn): the GI50 in assay [1], in assay [2] and in assay [3] was > 100 µM (inactive) in each case.

For the compound `CO[C@@H]1C[C@H]2[C@@H]3CC[C@H]([C@H](C)CO)[C@@]3(C)CC[C@@H]2[C@@]2(C)CC[C@H]3C[C@]312`, the GI50 is 13.3 µM (inactive) in assay [1], 31.6 µM (inactive) in assay [2] and 39.8 µM (inactive) in assay [3].

Consider `CCOCC(=O)N[C@H]1CCc2cc(OC(=O)COCC)c(OC)c(OC)c2-c2ccc(SC)c(=O)cc21`, for which the GI50 in assay [1] is 0.0752 µM (active); in assay [2], 0.0274 µM (active); in assay [3] it was 0.0022 µM (active).

With `Cn1c2c3ccc(Cl)cc3nc-2c(Cl)c2ccccc21`, the GI50 in assay [1] is 24.3 µM (inactive); in assay [2] it was 23.7 µM (inactive); in assay [3], 20.2 µM (inactive).

With `CCC1CN(C(=O)c2ccccc2)C(Cc2c[nH]c3ccccc23)C(=O)C1CC(=O)OC` (stereo not drawn), the GI50 in assay [1] was > 100 µM (inactive).

With `Cn1c(SCc2c[nH]c3ccccc23)nnc1-c1ccc(Cl)cc1Cl`, the GI50 is 18.3 µM (inactive) in assay [1], 10.5 µM (inactive) in assay [2] and 4.44 µM (inactive) in assay [3].

For the compound `C[O+]=C1C=CC(=C2SC(c3ccccc3)(c3ccccc3)c3ccccc32)C=C1.[O-][Cl+3]([O-])([O-])[O-]`, the GI50 is 24.7 µM (inactive) in assay [1], 18.5 µM (inactive) in assay [2] and 21.1 µM (inactive) in assay [3].

Consider `Cc1cc(O)cc(O)c1/N=N/c1ccc([N+](=O)[O-])cc1`, for which the values for the GI50 in assay [1], in assay [2] and in assay [3] were 15 µM (inactive), 14.8 µM (inactive) and 15.6 µM (inactive), respectively.

On to `O=C1CC(CC(O)[C@@H]2CCCC[C@@H]2O)CC(=O)N1c1ccccc1` (stereo partly drawn), for which the GI50 in assay [1], in assay [2] and in assay [3] was > 100 µM (inactive) throughout.

Take `CN(CCCCCl)P(=O)(OCc1ccc([N+](=O)[O-])o1)OC[C@H]1O[C@@H](n2cc(F)c(=O)[nH]c2=O)C[C@@H]1O` (stereo partly drawn): the results for the GI50 in assay [1], in assay [2] and in assay [3] were 2.84 µM (inactive), 12.9 µM (inactive) and 7.03 µM (inactive), respectively.

For `CCC(C)[C@@H](NC1=C(Cl)C(=O)c2c(O)ccc(O)c2C1=O)C(=O)OC` (stereo partly drawn), the GI50 in assay [1] was 3.43 µM (inactive); in assay [2] it was 2.52 µM (inactive); in assay [3], 3.56 µM (inactive).

Regarding `Cc1ccc(S(=O)(=O)N(CCN)c2cc3c4c(c2)Oc2cccc5c2C4c2c(cccc2O3)O5)cc1`, the GI50 in assay [1] was 47.2 µM (inactive); in assay [2], 17.9 µM (inactive); in assay [3], 23.8 µM (inactive).

Regarding `NC(CCCCNC(=O)C(Cc1ccccc1)NC(=O)OCc1ccccc1)C(=O)NC(CCCCNC(=O)C(Cc1ccccc1)NC(=O)OCc1ccccc1)C(=O)NC(CCCCNC(=O)C(Cc1ccccc1)NC(=O)OCc1ccccc1)C(=O)NC(CCCCNC(=O)C(Cc1ccccc1)NC(=O)OCc1ccccc1)C(=O)NC(CCCCNC(=O)C(Cc1ccccc1)NC(=O)OCc1ccccc1)C(=O)NC(CCCCNC(=O)C(Cc1ccccc1)NC(=O)OCc1ccccc1)C(=O)O` (stereo not drawn), the GI50 in assay [1], in assay [2] and in assay [3] was > 100 µM (inactive) throughout.

Take `O=c1nc2n(c3nsnc13)CCO2`: the GI50 in assay [4] is > 100 µM (inactive); in assay [5], 36.6 µM (inactive); in assay [6] it was > 100 µM (inactive); in assay [7], > 100 µM (inactive).

Regarding `Cc1nn(C(=O)Cc2ccccc2)c2c1C(c1ccc3ccccc3c1O)SC(=N)N2` (stereo not drawn), the GI50 in assay [1], in assay [2] and in assay [3] was > 100 µM (inactive) in each case.

Take `[O-]c1c2c(nn1-c1ccc(F)cc1)c1ccccc1c[n+]2Cc1ccccc1`: the GI50 in assay [4] was 11 µM (inactive); in assay [5] it was 10.8 µM (inactive); in assay [6], 0.448 µM (active); in assay [7], 19.2 µM (inactive).

Consider `[N-]=[N+]=NC[C@H]1OCO[C@H](CN=[N+]=[N-])[C@H]2OCCOCCOc3ccccc3OCCOCCO[C@@H]21`, for which the GI50 in assay [1], in assay [2] and in assay [3] was > 100 µM (inactive) in each case.

On to `CC1CCCCNC1=S` (stereo not drawn), for which the GI50 in assay [1], in assay [2] and in assay [3] was > 10 µM (inactive) in each case.

As to `O=C1/C(=C/c2cccc([N+](=O)[O-])c2)N=C(c2ccccc2)N1c1nc2ccc(Sc3ccccc3)cc2[nH]1`, the GI50 was 88.7 µM (inactive) in assay [1], 93.1 µM (inactive) in assay [2] and 14.9 µM (inactive) in assay [3].

Regarding `O=c1[nH]c(-c2ccc([N+](=O)[O-])cc2)nc2ccc(Cl)cc12`, the GI50 in assay [6] was 44.2 µM (inactive).

Regarding `Cn1c2ccccc2n2c(=O)c(-c3ccc(O)cc3)nnc12`, the GI50 is 56 µM (inactive) in assay [1] and 31.2 µM (inactive) in assay [2].

Regarding `Cc1cc(N(CCC#N)CCC#N)ccc1/C=C1\SC(=S)NC1=O`, the GI50 in assay [1] was 37.2 µM (inactive); in assay [2], > 100 µM (inactive); in assay [3] it was > 100 µM (inactive).

On to `COC(OC)(c1ccccc1)C(Br)Br`, for which the GI50 in assay [1] is > 100 µM (inactive); in assay [2], 74.5 µM (inactive); in assay [3], 31.7 µM (inactive).

`COc1ccc(OC)c(C2CCc3nc4nc(N)nc(N)c4cc3C2)c1` (stereo not drawn): the GI50 in assay [1] was 6.9 µM (inactive); in assay [2], 2.35 µM (inactive); in assay [3] it was 2.13 µM (inactive).

As to `O=C(Nc1ccccc1-c1n[nH]c(S)nc1=O)C(F)(F)F`, the GI50 in assay [4], in assay [5], in assay [6] and in assay [7] was > 100 µM (inactive) throughout.

`C#CCNC(CS)C(=O)O` (stereo not drawn): the GI50 in assay [1] and in assay [2] was > 100 µM (inactive) in each case.

Regarding `NCCN/C(=N\c1ccccc1)Nc1ccccc1`, the GI50 in assay [1], in assay [2] and in assay [3] was > 100 µM (inactive) in each case.

As for `O=C(OCc1ccccc1)C(Cc1ccc(OCc2ccccc2)cn1)NC(=O)C(F)(F)F` (stereo not drawn), the GI50 in assay [1], in assay [2] and in assay [3] was > 100 µM (inactive) throughout.

With `c1csc(-c2ccsc2-c2ccsc2)c1`, the GI50 in assay [1] was > 100 µM (inactive); in assay [2], > 100 µM (inactive); in assay [3], 73.1 µM (inactive).

Consider `CCOC(=O)CC[C@H](NC(=O)N[C@H](C)c1ccccc1)C(=O)OCC`, for which the GI50 in assay [1] was > 100 µM (inactive); in assay [2] it was 28.6 µM (inactive); in assay [3], 18.6 µM (inactive).

As to `COc1cc2c3c(cc(Cl)nc3c1OC)C(=O)C(=O)N2`, the results for the GI50 in assay [1] and in assay [2] were 16.2 µM (inactive) and 1.94 µM (inactive), respectively.

`NNC(=O)c1c(SCc2ccccc2)nc2c3ccccc3ccn12`: the GI50 in assay [1] is 21.4 µM (inactive); in assay [2], 29.4 µM (inactive).

In the case of `C=C(Br)CN(C#N)CC(=C)Br`, the GI50 in assay [2] and in assay [3] was > 100 µM (inactive) each time.

In the case of `CCCC1CCC(=C2C(=O)CCC2=O)O1` (stereo not drawn), the GI50 in assay [1], in assay [2] and in assay [3] was > 100 µM (inactive) throughout.

Consider `C/C=C1/CN2CC[C@@H]3c4ccccc4N4[C@H](C(=O)OC)[C@H]1C[C@H]2[C@]34/C=C/C1=COC[C@@H]2[C@H]1C[C@H]1c3c(c4ccccc4n3C)C[C@@H]2N1C`, for which the GI50 was 4.32 µM (inactive) in assay [1], 4.02 µM (inactive) in assay [2] and 2.32 µM (inactive) in assay [3].

Consider `COc1ccc2c(c1)C(=O)CC1c3cnccc3C(=O)N21` (stereo not drawn), for which the GI50 in assay [1], in assay [2] and in assay [3] was > 100 µM (inactive) throughout.

With `Cn1c2ccccc2n2c(=O)c3cc([N+](=O)[O-])ccc3c(C#N)c12`, the GI50 in assay [1] and in assay [3] was > 100 µM (inactive) each time.

As to `Cn1c(=O)c2ccccc2c2nc3ccccc3nc21`, the GI50 in assay [5] and in assay [6] was > 100 µM (inactive) in each case.
